Test results from patent US7585938B2, “Gamma-secretase inhibitors” (priority 2002, dated 2009).
≈ marks a conversion by molar mass, not a printed value. Blank lines part the entries; values can stand above or below the compound they belong to.

Legend:
[1] = test system: γ-secretase; assay: Amyloid protein determination by ELISA in culture supernatant of COS cells with introduced Sweden-type APP695 gene; type: cell-based, simian; settings: for Inhibition rate (%) Aβ42(43) / Inhibition rate (%) Total Aβ: 100 µM
Excerpt: (§1) The human APP695 gene used in this example (whose nucleotide sequence in its coding region is shown as SEQ ID NO:6) was what had been screened from a cDNA library prepared from the dead brain of a normal human by a conventional method, and its entire nucleotide sequence was confirmed by a conventional method. Briefly, about 1 g of frozen cerebral tissue was phenol-treated and the supernatant aqueous solution was collected. After repeating this process, mRNA was precipitated by addition of ethanol. After dissolving in 20 mM tris-HCl, pH 8., 0.1 mM EDTA, cDNA was synthesized with reverse transcriptase using oligo-dT primers and the mRNA as a template. After remaining RNA was digested with RNase, using thus obtained single-stranded cDNA as a template, double-stranded cDNA was synthesized with DNA polymerase. The double-stranded cDNA was then blunt-ended with T4 DNA polymerase. Following introduction of methylation into a EcoR1 restriction site using EcoR1 methylase, an EcoR1 linker adapter was ligated using ligase. After removal of unreacted free adapter by gel filtration, ligation to λgt11 vector was effected using DNA ligase, and thus ligated product was incorporated into λ-phage using a packaging kit. E. coli cells in agar plates were infected with the λ-phage thus obtained, and the solution containing thus proliferated phage was used as cDNA library. For APP cDNA cloning, oligonucleotides that were anticipated based on the amyloid protein were radio-labeled using γ^32P-ATP and DNA kinase to provide the labeled nucleotides as probes. 10^6 pfu (plaque forming units) of phage were allowed to form plaques on agar plates, and brought into contact with a nylon membrane. The phage DNAs that stuck to the membrane were denaturated to single-stranded DNAs by alkali treatment of the nylon membrane, and the membrane then was neutralized, to which, after incubation in a solution containing salmon sperm DNAs, the ^32P radio-labeled nucleotide probes were added and allowed to hybridize for 12 hours. At this stage, where aimed APP gene incorporated to the phage and one of the oligonucleotides were mutually complementary in their sequences, they would form a double-stranded DNA. The nylon membrane was then exposed to X-ray film, and plaques on the agar plates corresponding to spots of exposure were identified with phages carrying APP gene (fragment). By repeating this process, a single phage was finally obtained. The nucleotide sequence of the APP gene incorporated into the phage was determined by publicly known Sanger method.
(§2) APP gene was efficiently introduced from outside into COS cells, which is a cultured cell line of simian kidney's origin, using Lipofectamine Plus reagent (Invitrogen K.K.) according to its protocol. Briefly, 1 μg of APP gene was dissolved in 100 μl of OPTI-MEM, mixed with 6 μl of Plus reagent and left to stand for 15 minutes at room temperature. In parallel, 4 μl of Lipofectamine dissolved in 100 μl of OPTI-MEM medium was prepared. This was then mixed with the APP gene solution, and left to stand for further 15 minutes. Six-well culture plates were provided in advance in each well of which was placed 800 μl of culture that had been prepared by culturing COS cells at 75% to 80% cell density in a DMEM medium supplemented with 10% fetal bovine serum, and then replacing the medium with OPTI-MEM medium. Two hundred pI of the reaction mixture containing the gene were added to each culture well. Twelve hours after introduction of the gene, the medium was changed from the OPTI-MEM medium containing the introduced gene to a 10% fetal bovine serum-supplemented DMEM medium free of the introduced gene. To this culture, the compound obtained in Example 1 was added. After 36 to 48 hours, culture supernatant was collected, transferred to centrifuging tubes, and centrifuged at 10,000 r.p.m. at room temperature for 5 minutes. The supernatant was used as a sample containing amyloid protein. […]

[2] = Examination of solubility, visually and by microscopy; type: physicochemical
Excerpt: The compound synthesized in Example 1 was examined for its solubility, visually as well as by microscopy.

[3] = test system: γ-secretase; assay: Amyloid protein determination by ELISA in culture supernatant of COS cells with introduced wild-type human APP695 gene; type: cell-based, simian; settings: for Inhibition rate (%) Aβ42(43) / Inhibition rate (%) Total Aβ: 100 µM
Excerpt: as §1, §2

[4] = test system: γ-secretase; assay: Amyloid protein determination by ELISA in cells with introduced APP artificial fragment C100 instead of APP695; type: cell-based, simian; settings: Inhibitor 100 μM; for Inhibition rate (%) Aβ40 / Inhibition rate (%) Aβ42(43): 100 µM
[5] = test system: γ-secretase; assay: Amyloid protein determination by ELISA in culture supernatant of COS cells with introduced London-type (Val717Ile) APP695 gene; type: cell-based, simian; settings: for Inhibition rate (%) Total Aβ: 100 µM
Excerpt: as §1, §2

[6] = biological target: T1, γ-secretase (Homo sapiens, UniProt P49768); assay: Amyloid protein determination by ELISA in IMR32 cells with introduced human APP695 gene carrying the Sweden mutation; type: cell-based
T1 construct: endogenous in cells; host or cells: IMR32 cells (transfected only with the substrate APP gene)
Protocol: APP gene was efficiently introduced from outside into COS cells, which is a cultured cell line of simian kidney's origin, using Lipofectamine Plus reagent (Invitrogen K.K.) according to its protocol. Briefly, 1 μg of APP gene was dissolved in 100 μl of OPTI-MEM, mixed with 6 μl of Plus reagent and left to stand for 15 minutes at room temperature. In parallel, 4 μl of Lipofectamine dissolved in 100 μl of OPTI-MEM medium was prepared. This was then mixed with the APP gene solution, and left to stand for further 15 minutes. Six-well culture plates were provided in advance in each well of which was placed 800 μl of culture that had been prepared by culturing COS cells at 75% to 80% cell density in a DMEM medium supplemented with 10% fetal bovine serum, and then replacing the medium with OPTI-MEM medium. Two hundred pI of the reaction mixture containing the gene were added to each culture well. Twelve hours after introduction of the gene, the medium was changed from the OPTI-MEM medium containing the introduced gene to a 10% fetal bovine serum-supplemented DMEM medium free of the introduced gene. To this culture, the compound obtained in Example 1 was added. After 36 to 48 hours, culture supernatant was collected, transferred to centrifuging tubes, and centrifuged at 10,000 r.p.m. at room temperature for 5 minutes. The supernatant was used as a sample containing amyloid protein. The shorter and the longer amyloid protein components contained in each sample can be separately determined using a commercially available ELISA kit for amyloid protein determination (KHB3441: Signal Select™ Human ⊖ Amyloid1-42 ELISA Kit, or KHB3481: Signal Select™ Human β Amyloid1-40 ELISA Kit, BioSource International, Inc. CA, USA). Those ELISA kits for amyloid determination included 96-well ELISA plates coated with a primary antibody to these two types of amyloid proteins. Following eliminating non-specific antigen-antibody reactions by allowing a usual non-specific blocking reaction, a sample medium containing the amyloid protein to be measured was reacted. Then, after usual washing, one of secondary antibodies was added. The secondary antibodies consisted of two deferent antibodies that can distinguish between the two types of amyloid proteins, the one is the shorter amyloid protein and the other is the longer amyloid antibody, without no cross reactivity. The difference between the two amyloid proteins is the absence or presence of the two amino acid residues (isoleucine and alanine) at their carboxyl terminus. The antibody that detects the former is considered to recognize valine at the carboxyl terminus and the antibody that detects the latter is thought to recognize the alanine.
The compounds (1′a) and (1′b) obtained above were measured for inhibitory activity by the same method as in Example 3. As the system for evaluation, however, IMR32, a neural system cell line of human origin, was used after introducing to it a human APP695 gene into which the Sweden mutation had been incorporated.

[7] = Inhibitor 100 μM, Sweden-type APP695, COS cells
[8] = Sweden-type APP695, inhibitor 100 μM (Table 2), listed as Compound
[9] = Sweden-type APP695, inhibitor 100 μM (Table 2), listed as inhibitor
[10] = inhibitor 100 μM (Table 2), listed as Compound
[11] = inhibitor 100 μM (Table 2), listed as inhibitor
[12] = Inhibitor 100 μM, London-type APP695, COS cells
[13] = London-type APP695, inhibitor 100 μM (Table 2)

solubility ([2]; DMEM medium containing 10% fetal bovine serum, plasma or biological fluid, concentration 10 ng/ml): > 0.01 µg/mL
solubility ([2]; DMEM medium containing 10% fetal bovine serum, plasma or biological fluid, concentration 1 μg/ml): 0.01 to 1 µg/mL (≈ 0.017 to 1.7 µM)
solubility ([2]; DMEM medium containing 10% fetal bovine serum, plasma or biological fluid, concentration 100 μg/ml): < 100 µg/mL
solubility ([2]; DMSO, organic solvent or mixture, concentration 10 ng/ml): > 0.01 µg/mL
solubility ([2]; DMSO, organic solvent or mixture, concentration 1 μg/ml): > 1 µg/mL
solubility ([2]; DMSO, organic solvent or mixture, concentration 100 μg/ml): > 100 µg/mL
solubility ([2]; phosphate buffer, pH 7, aqueous buffer, Phosphate buffer (pH 7.0), concentration 10 ng/ml): > 0.01 µg/mL
solubility ([2]; phosphate buffer, pH 7, aqueous buffer, Phosphate buffer (pH 7.0), concentration 1 μg/ml): 0.01 to 1 µg/mL (≈ 0.017 to 1.7 µM)
solubility ([2]; phosphate buffer, pH 7, aqueous buffer, Phosphate buffer (pH 7.0), concentration 100 μg/ml): < 100 µg/mL
solubility ([2]; physiological saline, saline or isotonic, concentration 10 ng/ml): > 0.01 µg/mL
solubility ([2]; physiological saline, saline or isotonic, concentration 1 μg/ml): 0.01 to 1 µg/mL (≈ 0.017 to 1.7 µM)
solubility ([2]; physiological saline, saline or isotonic, concentration 100 μg/ml): < 100 µg/mL
Compound: COC(=O)[C@H](CC(C)C)NC(=O)[C@H](CCSC)NC(=O)[C@@H](C[C@@H](O)[C@H](CC(C)C)NC(=O)OC(C)(C)C)C(C)C [Compound 1, Boc-Leu*-Val-Met-Leu-OMe]
Aβ40 [1, 7]: 1726 pg/mL
Aβ42(43) [1, 7]: 1311 pg/mL
Ratio of Aβ42(43)/Aβ40 [1, 7]: 0.76
inhibitory activity for Aβ40 ([1]; Sweden double mutation): about 90%
Inhibition rate (%) Aβ40 ([1]; Sweden-type APP695, inhibitor 100 μM (Table 2)): 90%
Inhibition rate (%) Aβ42(43) [1, 8]: 48%
Inhibition rate (%) Total Aβ [1, 8]: 84%
Inhibition rate (%) Aβ42(43) [1, 9]: about 48%
Inhibition rate (%) Total Aβ [1, 9]: more than 80%
inhibitory activity for Aβ40 production [3]: about 98%
Aβ40 ([3]; Inhibitor 100 μM, COS cells): 218 pg/mL
Aβ42(43) ([3]; Inhibitor 100 μM, COS cells): 415 pg/mL
Ratio of Aβ42(43)/Aβ40 ([3]; Inhibitor 100 μM, COS cells): 1.90
Inhibition rate (%) Aβ42 ([3]; inhibitor 100 μM (Table 2)): 98%
Inhibition rate (%) Aβ42(43) [3, 10]: 71%
Inhibition rate (%) Total Aβ [3, 10]: 98%
Inhibition rate (%) Aβ42(43) [3, 11]: about 71%
Inhibition rate (%) Total Aβ [3, 11]: about 98%
Aβ40 [4]: 100 pg/mL
Aβ42(43) [4]: 62 pg/mL
Inhibition rate (%) Total Aβ [4]: 85%
Total Aβ [4]: 162 pg/mL
Inhibition rate (%) Aβ40 ([4]; listed as Inhibitor): 89%
Inhibition rate (%) Aβ42(43) ([4]; listed as Inhibitor): 51%
Inhibition rate (%) Aβ40 ([4]; listed as inhibitor): about 90%
Inhibition rate (%) Aβ42(43) ([4]; listed as inhibitor): about 50%
Aβ40 [5, 12]: 151 pg/mL
Aβ42(43) [5, 12]: 855 pg/mL
Ratio of Aβ42(43)/Aβ40 [5, 12]: 5.66
inhibitory activity on amyloid protein production ([5]; London mutation (Val717Ile), compared with wild-type sequence): nearly the same level of inhibitory activity as that noted on the wild-type sequence
Inhibition rate (%) Aβ42 [5, 13]: 98%
Inhibition rate (%) Aβ42(43) [5, 13]: 70%
Inhibition rate (%) Total Aβ ([5]; London-type APP695, inhibitor 100 μM (Table 2), listed as Compound): 89%
Inhibition rate (%) Total Aβ ([5]; London-type APP695, inhibitor 100 μM (Table 2), listed as inhibitor): more than 80%

Aβ40 ([6]; 10 μM): 31 pg/mL
Aβ40 ([6]; 100 μM): 0 pg/mL
inhibition at 10 µM ([6]; IMR-32, Aβ40, 10 μM, read-out: Inhibition rate (%)): 73%
inhibition at 100 µM ([6]; IMR-32, Aβ40, 100 μM, read-out: Inhibition rate (%)): 100%
Compound: CSCC[C@H](NC(=O)[C@@H](NC(=O)[C@H](CC(C)C)C[C@@H](O)[C@@H](NC(=O)OC(C)(C)C)[C@@H](C)OC(C)(C)C)C(C)C)C(=O)NCc1ccccc1 [Compound 1′a, t-But-OCO-Thr*-Leu-Val-Met-NH-Bzl]

Aβ40 ([6]; 10 μM): 72 pg/mL
Inhibition rate (%) ([6]; 10 μM): 38%
Aβ40 ([6]; 100 μM): 26 pg/mL
Inhibition rate (%) ([6]; 100 μM): 78%
Compound: t-But-OCO-Thr*-Leu-Val-Met-NH-Bzl [Compound 1′b]
